Reference: patent US11325938B2, “CD73 inhibitors” (ORIC Pharmaceuticals, Inc., priority 2018, dated 2022)

Biological target: CD73 (Homo sapiens (Human), UniProt P21589)
Assay: Biochemical assay: inhibition of CD73 activity (AMP hydrolysis, Malachite Green readout)
Settings: CD73 0.3208 nM, AMP 15 μM, 25 mM Tris-HCl pH 7.4, RT, absorbance 620 nm
Procedure, shortened: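 Human CD73 (320 pM final) preincubated 15 min at RT with compounds (10-point ½-log titration from 100 μM, duplicates) in 25 mM Tris-HCl pH 7.4, 5 mM MgCl2, 0.01% Brij-35, 0.01% BSA. 15 μM AMP added, 10 min at RT; released phosphate read by Malachite Green absorbance; IC50 determined.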

CD73, sequence (P21589 27-574): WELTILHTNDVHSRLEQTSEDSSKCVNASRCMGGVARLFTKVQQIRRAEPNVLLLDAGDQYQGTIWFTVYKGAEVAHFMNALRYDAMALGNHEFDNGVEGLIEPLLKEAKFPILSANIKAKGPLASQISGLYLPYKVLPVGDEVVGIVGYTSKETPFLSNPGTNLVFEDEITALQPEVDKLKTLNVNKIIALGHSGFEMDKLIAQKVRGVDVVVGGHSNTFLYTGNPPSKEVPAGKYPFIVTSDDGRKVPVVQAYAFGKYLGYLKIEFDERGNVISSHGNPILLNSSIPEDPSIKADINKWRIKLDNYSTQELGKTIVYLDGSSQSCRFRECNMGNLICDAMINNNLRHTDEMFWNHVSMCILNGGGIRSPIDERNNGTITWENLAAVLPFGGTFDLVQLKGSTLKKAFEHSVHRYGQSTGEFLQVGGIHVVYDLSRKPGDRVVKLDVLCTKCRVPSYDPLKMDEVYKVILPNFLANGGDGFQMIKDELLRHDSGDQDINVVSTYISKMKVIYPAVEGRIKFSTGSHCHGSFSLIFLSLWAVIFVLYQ

| SMILES | IC50 |
| --- | --- |
| O=C(O)c1ccc(C[C@@](CO)(OC[C@H]2O[C@@H](n3ncc4c(NC5CCCC5)nc(Cl)nc43)[C@H](O)[C@@H]2O)P(=O)(O)O)cc1 (racemic) [Example 187, rac-4-((R)-2-(((2R,3S,4R,5R)-5-(6-chloro-4-(cyclopentylamino)-1H-pyrazolo[3,4-d]pyrimidin-1-yl)-3,4-dihydroxytetrahydrofuran-2-yl)methoxy)-3-hydroxy-2-phosphonopropyl)benzoic acid] | 100 to 1000 nM |
| O=P(O)(O)C(CO)(CO)OC[C@H]1O[C@@H](n2ncc3c(NC4CCCC4)cc(Cl)nc32)[C@H](O)[C@@H]1O (racemic) [Example 200, rac-(2-(((2R,3S,4R,5R)-5-(6-chloro-4-(cyclopentylamino)-1H-pyrazolo[3,4-b]pyridin-1-yl)-3,4-dihydroxytetrahydrofuran-2-yl)methoxy)-1,3-dihydroxypropan-2-yl)phosphonic acid] | ≤ 100 nM |
| O=P(O)(O)C(CO)OC[C@@H]1C[C@@H](O)[C@H](n2ncc3c(NC4CCCC4)nc(Cl)nc32)O1 (stereo partly drawn) [Example 40, (1-(((2S,4R,5R)-5-(6-chloro-4-(cyclopentylamino)-1H-pyrazolo[3,4-d]pyrimidin-1-yl)-4-hydroxytetrahydrofuran-2-yl)methoxy)-2-hydroxyethyl)phosphonic acid] | ≤ 100 nM |
| O=P(O)(O)[C@@](CO)(Cc1nn[nH]n1)OC[C@H]1O[C@@H](n2ncc3c(NC4CCC4)nc(Cl)nc32)[C@H](O)[C@@H]1O (racemic) [Example 213, rac-((R)-2-(((2R,3S,4R,5R)-5-(6-chloro-4-(cyclobutylamino)-1H-pyrazolo[3,4-d]pyrimidin-1-yl)-3,4-dihydroxytetrahydrofuran-2-yl)methoxy)-1-hydroxy-3-(2H-tetrazol-5-yl)propan-2-yl)phosphonic acid] | ≤ 100 nM |
| O=C(O)COCC(CO)(OC[C@H]1O[C@@H](n2ncc3c(NC4CCCC4)nc(Cl)nc32)[C@H](O)[C@@H]1O)P(=O)(O)O (mixture of isomers) [Example 198, rac-2-(2-(((2R,3S,4R,5R)-5-(6-chloro-4-(cyclopentylamino)-1H-pyrazolo[3,4-d]pyrimidin-1-yl)-3,4-dihydroxytetrahydrofuran-2-yl)methoxy)-3-hydroxy-2-phosphonopropoxy)acetic acid] | ≤ 100 nM |
| O=P(O)(O)CP(=O)(O)OC[C@H]1O[C@@H](n2nnc3c(NC4CCCC4)cc(Cl)nc32)[C@H](O)[C@@H]1O [Example 53, (((((2R,3S,4R,5R)-5-(5-chloro-7-(cyclopentylamino)-3H-[1,2,3]triazolo[4,5-b]pyridin-3-yl)-3,4-dihydroxytetrahydrofuran-2-yl)methoxy)(hydroxy)phosphoryl)methyl)phosphonic acid] | ≤ 100 nM |
| O=P(O)(O)C(OC[C@H]1O[C@@H](n2ncc3c(NC4CCCC4)nc(Cl)nc32)[C@H](O)[C@@H]1O)c1nnn[nH]1 (stereo partly drawn) [Example 35, ((((2R,3S,4R,5R)-5-(6-chloro-4-(cyclopentylamino)-1H-pyrazolo[3,4-d]pyrimidin-1-yl)-3,4-dihydroxytetrahydrofuran-2-yl)methoxy)(1H-tetrazol-5-yl)methyl)phosphonic acid] | ≤ 100 nM |
| O=P(O)(O)[C@](CO)(Cc1nn[nH]n1)OC[C@H]1O[C@@H](n2ncc3c(NCC4CC4)nc(Cl)nc32)[C@H](O)[C@@H]1O (racemic) [Example 196, rac-((R)-2-(((2S,3R,4S,5S)-5-(6-chloro-4-((cyclopropylmethyl)amino)-1H-pyrazolo[3,4-d]pyrimidin-1-yl)-3,4-dihydroxytetrahydrofuran-2-yl)methoxy)-1-hydroxy-3-(2H-tetrazol-5-yl)propan-2-yl)phosphonic acid] | ≤ 100 nM |
| O=C(O)C(OC[C@H]1O[C@@H](n2ncc3c(NC4CCCC4)nc(Cl)nc32)[C@H](O)[C@@H]1O)P(=O)(O)O (stereo partly drawn) [Example 28, 2-(((2R,3S,4R,5R)-5-(6-chloro-4-(cyclopentylamino)-1H-pyrazolo[3,4-d]pyrimidin-1-yl)-3,4-dihydroxytetrahydrofuran-2-yl)methoxy)-2-phosphonoacetic acid] | ≤ 100 nM |
| O=P(O)(O)C(CO)OC[C@H]1O[C@@H](n2ncc3c(NC4CCCC4)nc(Cl)nc32)[C@H](O)[C@@H]1O (stereo partly drawn) [Example 13, (1-(((2R,3S,4R,5R)-5-(6-chloro-4-(cyclopentylamino)-1H-pyrazolo[3,4-d]pyrimidin-1-yl)-3,4-dihydroxytetrahydrofuran-2-yl)methxoy)-2-hydroxyethyl)phosphonic acid] | ≤ 100 nM |
| O=P(O)(O)[C@@H](CO)OC[C@H]1O[C@@H](n2ncc3c(NC4CCCC4)nc(Cl)nc32)[C@H](O)[C@@H]1O (single isomer, unassigned) [Example 3] | ≤ 100 nM |
| O=P(O)(O)COC[C@H]1O[C@@H](n2nnc3c(NC4CCC4)cc(Cl)nc32)[C@H](O)[C@@H]1O [Example 23, ((((2R,3S,4R,5R)-5-(5-chloro-7-(cyclobutylamino)-3H-[1,2,3]triazolo[4,5-b]pyridin-3-yl)-3,4-dihydroxytetrahydrofuran-2-yl)methoxy)methyl)phosphonic acid] | ≤ 100 nM |

Continued, values first:

| IC50 | SMILES |
| --- | --- |
| ≤ 100 nM | COC[C@H](OC[C@H]1O[C@@H](n2nnc3c(NC4CCCC4)cc(Cl)nc32)[C@H](O)[C@@H]1O)P(=O)(O)O [Example 157, ((R)-1-(((2R,3S,4R,5R)-5-(5-chloro-7-(cyclopentylamino)-3H-[1,2,3]triazolo[4,5-b]pyridin-3-yl)-3,4-dihydroxytetrahydrofuran-2-yl)methoxy)-2-methoxyethyl)phosphonic acid] |
| ≤ 100 nM | COCC(C)(OC[C@H]1O[C@@H](n2nnc3c(NC4CCCC4)nc(Cl)nc32)[C@H](O)[C@@H]1O)P(=O)(O)O (stereo partly drawn) [Example 82, (2-(((2R,3S,4R,5R)-5-(5-chloro-7-(cyclopentylamino)-3H-[1,2,3]triazolo[4,5-d]pyrimidin-3-yl)-3,4-dihydroxytetrahydrofuran-2-yl)methoxy)-1-methoxypropan-2-yl)phosphonic acid] |
| ≤ 100 nM | C[C@@](CO)(OC[C@H]1O[C@@H](n2ncc3c(N[C@@H]4CCc5cc(F)ccc54)nc(Cl)nc32)[C@H](O)[C@@H]1O)P(=O)(O)O [Example 122, ((R)-2-(((2R,3S,4R,5R)-5-(6-chloro-4-(((R)-5-fluoro-2,3-dihydro-1H-inden-1-yl)amino)-1H-pyrazolo[3,4-d]pyrimidin-1-yl)-3,4-dihydroxytetrahydrofuran-2-yl)methoxy)-1-hydroxypropan-2-yl)phosphonic acid] |
| ≤ 100 nM | COC[C@](C)(OC[C@H]1O[C@@H](n2nnc3c(NC4CCCC4)nc(Cl)nc32)[C@H](O)[C@@H]1O)P(=O)(O)O [Example 110, ((R)-2-(((2R,3S,4R,5R)-5-(5-chloro-7-(cyclopentylamino)-3H-[1,2,3]triazolo[4,5-d]pyrimidin-3-yl)-3,4-dihydroxytetrahydrofuran-2-yl)methoxy)-1-methoxypropan-2-yl)phosphonic acid] |
| ≤ 100 nM | COCC(C)(OC[C@H]1O[C@@H](n2nnc3c(N[C@@H]4CCc5ccccc54)nc(Cl)nc32)[C@H](O)[C@@H]1O)P(=O)(O)O (stereo partly drawn) [Example 155, (2-(((2R,3S,4R,5R)-5-(5-chloro-7-(((R)-2,3-dihydro-1H-inden-1-yl)amino)-3H-[1,2,3]triazolo[4,5-d]pyrimidin-3-yl)-3,4-dihydroxytetrahydrofuran-2-yl)methoxy)-1-methoxypropan-2-yl)phosphonic acid] |
| ≤ 100 nM | O=P(O)(O)C(CO)OC[C@H]1O[C@@H](n2nnc3c(NC4CCCC4)nc(Cl)nc32)[C@H](O)[C@@H]1O (stereo partly drawn) [Example 58, (1-(((2R,3S,4R,5R)-5-(5-Chloro-7-(cyclopentylamino)-3H-[1,2,3]triazolo[4,5-d]pyrimidin-3-yl)-3,4-dihydroxytetrahydrofuran-2-yl)methoxy)-2-hydroxyethyl)phosphonic acid] |
| ≤ 100 nM | O=P(O)(O)C(CO)(Cc1ncccn1)OC[C@H]1O[C@@H](n2ncc3c(NC4CCCC4)nc(Cl)nc32)[C@H](O)[C@@H]1O (mixture of isomers) [Example 168, rac-(2-(((2R,3S,4R,5R)-5-(6-chloro-4-(cyclopentylamino)-1H-pyrazolo[3,4-d]pyrimidin-1-yl)-3,4-dihydroxytetrahydrofuran-2-yl)methoxy)-1-hydroxy-3-(pyrimidin-2-yl)propan-2-yl)phosphonic acid] |
| ≤ 100 nM | C[C@@](CO)(OC[C@H]1O[C@@H](n2ncc3c(N[C@@H]4CCc5ccc(F)cc54)nc(Cl)nc32)[C@H](O)[C@@H]1O)P(=O)(O)O [Example 99, ((R)-2-(((2R,3S,4R,5R)-5-(6-chloro-4-(((R)-6-fluoro-2,3-dihydro-1H-inden-1-yl)amino)-1H-pyrazolo[3,4-d]pyrimidin-1-yl)-3,4-dihydroxytetrahydrofuran-2-yl)methoxy)-1-hydroxypropan-2-yl)phosphonic acid] |
| ≤ 100 nM | COC[C@@](C)(OC[C@H]1O[C@@H](n2ncc3c(NC4CCCC4)nc(Cl)nc32)[C@H](O)[C@@H]1O)P(=O)(O)O [Example 65, ((S)-2-(((2R,3S,4R,5R)-5-(6-chloro-4-(cyclopentylamino)-1H-pyrazolo[3,4-d]pyrimidin-1-yl)-3,4-dihydroxytetrahydrofuran-2-yl)methoxy)-1-methoxypropan-2-yl)phosphonic acid] |
| ≤ 100 nM | COCC(C)(OC[C@H]1O[C@@H](n2ncc3c(N[C@@H]4CCc5ccccc54)nc(Cl)nc32)[C@H](O)[C@@H]1O)P(=O)(O)O (stereo partly drawn) [Example 77, (2-(((2R,3S,4R,5R)-5-(6-chloro-4-(((R)-2,3-dihydro-1H-inden-1-yl)amino)-1H-pyrazolo[3,4-d]pyrimidin-1-yl)-3,4-dihydroxytetrahydrofuran-2-yl)methoxy)-1-methoxypropan-2-yl)phosphonic acid] |
| ≤ 100 nM | O=P(O)(O)COC[C@H]1O[C@@H](n2nnc3c(NCc4ccccc4Cl)cc(Cl)nc32)[C@H](O)[C@@H]1O [Example 26, ((((2R,3S,4R,5R)-5-(5-chloro-7-((2-chlorobenzyl)amino)-3H-[1,2,3]triazolo[4,5-b]pyridin-3-yl)-3,4-dihydroxytetrahydrofuran-2-yl)methoxy)methyl)phosphonic acid] |
